Reference: patent US7208517B1, “Endothelin antagonists” (Abbott Labortories, priority 1994, dated 2007)

target: T1, ETA Receptor (Rattus norvegicus, UniProt P26684); test: [125I]ET-1 binding to membranes from MMQ cells (ETA receptor binding assay, Table 4); settings: test compound at 1 μM; 0.1 nM [125I]ET-1, MMQ cell membranes, 4 hours at 25° C.
T1 construct: endogenous in cells; host or cells: MMQ rat pituitary cells (membranes)
T1 sequence (P26684 21-426): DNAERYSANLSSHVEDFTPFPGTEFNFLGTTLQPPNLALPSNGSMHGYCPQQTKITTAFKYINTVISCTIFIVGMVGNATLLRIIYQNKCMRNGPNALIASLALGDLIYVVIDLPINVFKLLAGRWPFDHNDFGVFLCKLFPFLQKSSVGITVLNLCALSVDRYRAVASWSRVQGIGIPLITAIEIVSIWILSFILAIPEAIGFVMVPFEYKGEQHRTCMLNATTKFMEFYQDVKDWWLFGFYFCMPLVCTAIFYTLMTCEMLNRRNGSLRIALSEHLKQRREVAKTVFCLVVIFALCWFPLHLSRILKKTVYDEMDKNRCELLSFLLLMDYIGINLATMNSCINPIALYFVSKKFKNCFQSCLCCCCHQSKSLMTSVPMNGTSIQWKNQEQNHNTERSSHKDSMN

**Q.** `CCCCN(CCCC)C(=O)CN1CC(c2ccc3c(c2)OCO3)C(C(=O)O)C1c1ccccc1` (stereo not drawn) [Example 152, trans,trans-1-(N,N-Di(n-butyl)aminocarbonylmethyl)-2-phenyl-4-(1,3-benzodioxol-5-yl)pyrrolidine-3-carboxylic acid] was tested. Which “% Inhibition of ETA at 1 μM” value did it give?
**A.** 86.9%

**Q.** With `CCCCN(CCCC)C(=O)CN1CC(c2ccc3c(c2)CCO3)C(C(=O)O)C1c1ccccc1` (stereo not drawn) [Example 153, trans,trans-1-(N,N-Di(n-butyl)aminocarbonylmethyl)-2-phenyl-4-(5-benzo-2,3-dihydrofuranyl)pyrrolidine-3-carboxylic acid] as the compound, how does the “% Inhibition of ETA at 1 μM” value read?
**A.** 97.1%

**Q.** With `CCCCN(CCCC)C(=O)CN1CC(c2ccc3c(c2)CCO3)C(C(=O)O)C1c1ccc(C(C)(C)C)cc1` (stereo not drawn) [Example 154, trans,trans-1-(N,N-Di(n-butyl)aminocarbonylmethyl)-2-(4-t-butylphenyl)-4-(5-benzo-2,3-dihydrofuranyl)pyrrolidine-3-carboxylic acid] as the compound, how does the “% Inhibition of ETA at 1 μM” value read?
**A.** 80.2%

**Q.** With `CCCCN(CCCC)C(=O)CN1CC(c2ccc3c(c2)OCO3)C(C(=O)O)C1c1ccoc1` (stereo not drawn) [Example 156, trans,trans-1-(N. N-Di(n-butyl)aminocarbonylmethyl)-2-(3-furyl)-4-(1,3-benzodioxol-5-yl)pyrrolidine-3-carboxylic acid] as the compound, how does the “% Inhibition of ETA at 1 μM” value read?
**A.** 92.6%

**Q.** Which “% Inhibition of ETA at 1 μM” value does the source give for `CCCCN(CCCC)C(=O)CN1CC(c2ccc3c(c2)OCO3)C(C(=O)O)C1C(C)C` (stereo not drawn) [Example 157, trans,trans-1-(N,N-Di(n-butyl)aminocarbonylmethyl)-2-(isopropyl)-4-(1,3-benzodioxol-5-yl)pyrrolidine-3-carboxylic acid] here?
**A.** 83.8%

**Q.** For `CCCCN(CCCC)C(=O)CN1CC(c2ccc3c(c2)OCO3)C(C(=O)O)C1c1ccc(C(C)(C)C)cc1` (stereo not drawn) [Example 158, trans,trans-1-(N,N-Di(n-butyl)aminocarbonylmethyl)-2-(4-t-butylphenyl)-4-(1,3-benzodioxol-5-yl)pyrrolidine-3-carboxylic acid], which “% Inhibition of ETA at 1 μM” value is on record?
**A.** 91.8%

**Q.** For `CCCCN(CCCC)C(=O)CN1CC(c2ccc3c(c2)CCO3)C(C(=O)O)C1c1ccc(C(C)(C)C)cc1` (stereo not drawn) [Example 159, trans,trans-1-(N,N-Di(n-butyl)aminocarbonylmethyl)-2-(4-t-butylphenyl)-4-(5-benzo-2,3-dihydrofuranylpyrrolidine-3-carboxylic acid], which “% Inhibition of ETA at 1 μM” value is on record?
**A.** 36.2%

**Q.** How did the “% Inhibition of ETA at 1 μM” value turn out when `CCCCN(CCCC)C(=O)CN1CC(c2ccc3c(c2)OCO3)C(C(=O)O)C1C1CCC(OC)CC1` (stereo not drawn) [Example 160B, trans,trans-1-(N,N-Di(n-butyl)aminocarbonylmethyl)-2-(anti-4-methoxycyclohexyl)-4-(1,3-benzodioxol-5-yl)pyrrolidine-3-carboxylic acid] was run?
**A.** 80.3%

**Q.** How did the “% Inhibition of ETA at 1 μM” value turn out when `CCCCN(CCCC)C(=O)CN1CC(c2ccc3c(c2)OCO3)C(C(=O)O)C1[C@H]1CC[C@H](OC)CC1` (stereo partly drawn) [Example 161, trans,trans-1-(N,N-Di(n-butyl)aminocarbonylmethyl)-2-(syn-4-methoxycyclohexyl)-4-(1,3-benzodioxol-5-yl)pyrrolidine-3-carboxylic acid] was run?
**A.** 93.6%

**Q.** How did the “% Inhibition of ETA at 1 μM” value turn out when `CCCCN(CCCC)C(=O)CN1CC(c2ccc3c(c2)CCO3)C(C(=O)O)C1c1ccc2c(c1)CCO2` (stereo not drawn) [Example 162B, trans,trans-1-(N,N-Di(n-butyl)aminocarbonylmethyl)-2,4-di(5-benzo-2,3-dihydrofuranyl)pyrrolidine-3-carboxylic acid] was run?
**A.** 91.5%

**Q.** Which “% Inhibition of ETA at 1 μM” value does the source give for `CCCCN(CCCC)C(=O)CN1CC(c2ccc3c(c2)CCO3)C(C(=O)O)C1c1ccoc1` (stereo not drawn) [Example 163, trans,trans-1-(N,N-Di(n-butyl)aminocarbonylmethyl)-2-(3-furyl)-4-(5-benzo-2,3-dihydrofuranyl)pyrrolidine-3-carboxylic acid] here?
**A.** 90.6%

**Q.** For `CCCCN(CCCC)C(=O)CN1CC(c2cccc(F)c2)C(C(=O)O)C1c1ccc(OC)cc1` (stereo not drawn) [Example 164, trans,trans-1-(N,N-Di(n-butyl)aminocarbonylmethyl)-2-(4-methoxyphenyl)-4-(3-fluorophenyl)pyrrolidine-3-carboxylic acid], which “% Inhibition of ETA at 1 μM” value is on record?
**A.** 98.6%

**Q.** Which “% Inhibition of ETA at 1 μM” value does the source give for `CCCCN(CCCC)C(=O)CN1CC(c2cccnc2)C(C(=O)O)C1c1ccc(OC)cc1` (stereo not drawn) [Example 165, trans,trans-1-(N,N-Di(n-butyl)aminocarbonylmethyl)-2-(4-methoxyphenyl)-4-(3-pyridyl)pyrrolidine-3-carboxylic acid] here?
**A.** 54.1%

**Q.** `CCCCN(CCCC)C(=O)CN1CC(c2ccc3c(c2)OCO3)C(C(=O)O)C1c1ccccc1F` (stereo not drawn) [Example 166, trans,trans-1-(N,N-Di(n-butyl)aminocarbonylmethyl)-2-(2-fluorophenyl)-4-(1,3-benzodioxol-5-yl)pyrrolidine-3-carboxylic acid] was tested. Which “% Inhibition of ETA at 1 μM” value did it give?
**A.** 91.6%

**Q.** Which “% Inhibition of ETA at 1 μM” value does the source give for `CCCCN(CCCC)C(=O)CN1CC(c2ccc3c(c2)OCO3)C(C(=O)O)C1c1cccc(F)c1` (stereo not drawn) [Example 167, trans,trans-1-(N,N-Di(n-butyl)aminocarbonylmethyl)-2-(3-fluorophenyl)-4-(1,3-benzodioxol-5-yl)pyrrolidine-3-carboxylic acid] here?
**A.** 94.4%

**Q.** How did the “% Inhibition of ETA at 1 μM” value turn out when `COc1ccc(C2C(C(=O)O)C(c3ccc4c(c3)OCO4)CN2CC(=O)N2CCCC(C)(C)C2)cc1` (stereo not drawn) [Example 294, trans—trans-2-(4-Methoxyphenyl)-4-(1,3-benzodioxol-5-yl)-1-[3,3-dimethylpiperidinyl-carbonylmethyl]-pyrrolidine-3-carboxylic acid] was run?
**A.** 77.7%

**Q.** For `CCCN(CCN1CC(c2ccc3c(c2)OCO3)C(C(=O)O)C1c1ccc(OC)cc1)C(=O)OCC(C)C` (stereo not drawn) [Example 295, trans—trans-2-(4-Methoxyphenyl)-4-(1,3-benzodioxol-5-yl)-1-[2-(N-propyl-N-iso-butoxycarbonylamino)ethyl]-pyrrolidine-3-carboxylic acid], which “% Inhibition of ETA at 1 μM” value is on record?
**A.** 93.0%

**Q.** With `COc1ccc(C2C(C(=O)O)C(c3ccc4c(c3)OCO4)CN2CC(=O)N2CCc3ccccc3C2)cc1` (stereo not drawn) [Example 296, trans—trans-2-(4-Methoxyphenyl)-4-(1,3-benzodioxol-5-yl)-1-[1,2,3,4-tetrahydroisoquinolin-2-carbonylmethyl]-pyrrolidine-3-carboxylic acid] as the compound, how does the “% Inhibition of ETA at 1 μM” value read?
**A.** 87.1%

**Q.** With `CCCN(CCN1CC(c2ccc3c(c2)OCO3)C(C(=O)O)C1c1ccc(OC)cc1)C(=O)N(C)C` (stereo not drawn) [Example 297, trans—trans-2-(4-Methoxyphenyl)-4-(1,3-benzodioxol-5-yl)-1-[2-(N-propyl-N-dimethylaminocarbonylamino)ethyl]-pyrrolidine-3-carboxylic acid] as the compound, how does the “% Inhibition of ETA at 1 μM” value read?
**A.** 84.4%

**Q.** For `CCCN(CCN1CC(c2ccc3c(c2)OCO3)C(C(=O)O)C1c1ccc(OC)cc1)S(=O)(=O)c1ccc([N+](=O)[O-])cc1` (stereo not drawn) [Example 298, trans,trans-2-(4-Methoxyphenyl)-4-(1,3-benzodioxol-5-yl)-1-(2-(N-propyl-N-(4-nitrobenzenesulfonyl)amino)ethyl)-pyrrolidine-3-carboxylic acid], which “% Inhibition of ETA at 1 μM” value is on record?
**A.** 93.3%

**Q.** `CCCCCS(=O)(=O)N(CCC)CCN1CC(c2ccc3c(c2)OCO3)C(C(=O)O)C1c1ccc(OC)cc1` (stereo not drawn) [Example 299, trans,trans-2-(4-Methoxyphenyl)-4-(1,3-benzodioxol-5-yl)-1-(2-(N-propyl-N-n-pentanesulfonylamino)ethyl)-pyrrolidine-3-carboxylic acid] was tested. Which “% Inhibition of ETA at 1 μM” value did it give?
**A.** 90.4%

**Q.** How did the “% Inhibition of ETA at 1 μM” value turn out when `C=C(C)CS(=O)(=O)N(CCC)CCN1CC(c2ccc3c(c2)OCO3)C(C(=O)O)C1c1ccc(OC)cc1` (stereo not drawn) [Example 301, trans,trans-2-(4-Methoxyphenyl)-4-(1,3-benzodioxol-5-yl)-1-(2-(N-propyl-N-(2-methyl-2-propenesulfonyl)amino)ethyl)-pyrrolidine-3-carboxylic acid] was run?
**A.** 96.7%

**Q.** For `CCC1CCCCN1C(=O)CN1CC(c2ccc3c(c2)OCO3)C(C(=O)O)C1c1ccc(OC)cc1` (stereo not drawn) [Example 302, trans—trans-2-(4-Methoxyphenyl)-4-(1,3-benzodioxol-5-yl)-1-[2-ethylpiperidinyl-carbonylmethyl]-pyrrolidine-3-carboxylic acid], which “% Inhibition of ETA at 1 μM” value is on record?
**A.** 86.6%

**Q.** `CCCCCCCS(=O)(=O)N(CCC)CCN1CC(c2ccc3c(c2)OCO3)C(C(=O)O)C1c1ccc(OC)cc1` (stereo not drawn) [Example 304, trans,trans-2-(4-Methoxyphenyl)-4-(1,3-benzodioxol-5-yl)-1-(2-(N-propyl-N-heptanesulfonylamino)ethyl)-pyrrolidine-3-carboxylic acid] was tested. Which “% Inhibition of ETA at 1 μM” value did it give?
**A.** 89.7%

**Q.** `CCOC(=O)N(CC)CCN1CC(c2ccc3c(c2)OCO3)C(C(=O)O)C1c1ccc(OC)cc1` (stereo not drawn) [Example 305, trans—trans-2-(4-Methoxyphenyl)-4-(1,3-benzodioxol-5-yl)-1-[2-(N-ethyl-N-ethoxycarbonylamino)ethyl]-pyrrolidine-3-carboxylic acid] was tested. Which “% Inhibition of ETA at 1 μM” value did it give?
**A.** 87.4%

**Q.** With `CCCCCCS(=O)(=O)N(CCC)CCN1CC(c2ccc3c(c2)OCO3)C(C(=O)O)C1c1ccc(OC)cc1` (stereo not drawn) [Example 306, trans,trans-2-(4-Methoxyphenyl)-4-(1,3-benzodioxol-5-yl)-1-(2-(N-propyl-N-hexanesulfonylamino)ethyl)-pyrrolidine-3-carboxylic acid] as the compound, how does the “% Inhibition of ETA at 1 μM” value read?
**A.** 93.3%
